# Assay: Compound was tested for inhibitory activity against type II Phospholipase A2 (PLA2) isolated from japanese mamushi (Agkistrodon halys blomhoffii) venom
structure (smiles),measurement,value
"CCCCCCCCCCCC(=O)N1C(=O)O[C@@H](COP(=O)([O-])OCC[N+](C)(C)C)[C@H]1CCC [{2-[((4R,5S)-3-Dodecanoyl-2-oxo-4-propyl-oxazolidin-5-ylmethoxy)-hydroxy-phosphoryloxy]-ethyl}-trimethyl-ammonium]",IC50,45.8 µM
CCCCCCCCCCCC(=O)N[C@H](CCCC)COP(=O)([O-])OCC[N+](C)(C)C [(2-{[2-((S)-Dodecanoylamino)-hexyloxy]-hydroxy-phosphoryloxy}-ethyl)-trimethyl-ammonium],IC50,5.3 µM
CCCCCCCCCCCC(=O)N1C(=O)OC[C@@H]1COP(=O)([O-])OCC[N+](C)(C)C [{2-[((R)-3-Dodecanoyl-2-oxo-oxazolidin-4-ylmethoxy)-hydroxy-phosphoryloxy]-ethyl}-trimethyl-ammonium],IC50,31.3 µM
"CCCCCCCCCCCC(=O)N1C(=O)O[C@@H](COP(=O)([O-])OCC[N+](C)(C)C)[C@@H]1CCC [{2-[((4S,5S)-3-Dodecanoyl-2-oxo-4-propyl-oxazolidin-5-ylmethoxy)-hydroxy-phosphoryloxy]-ethyl}-trimethyl-ammonium]",IC50,40.1 µM
"CCCCCCCCCCCC(=O)N1C(=O)O[C@H](COP(=O)([O-])OCC[N+](C)(C)C)[C@H]1CCC [{2-[((4R,5S)-3-Dodecanoyl-2-oxo-4-propyl-oxazolidin-5-ylmethoxy)-hydroxy-phosphoryloxy]-ethyl}-trimethyl-ammonium]",IC50,19.8 µM
"CCCCCCCCCCCC(=O)N1C(=O)O[C@H](COP(=O)([O-])OCC[N+](C)(C)C)[C@@H]1CCC [{2-[((4S,5R)-3-Dodecanoyl-2-oxo-4-propyl-oxazolidin-5-ylmethoxy)-hydroxy-phosphoryloxy]-ethyl}-trimethyl-ammonium]",IC50,52.9 µM
